SMILES strings stand for the structures.

Consider 1 molecule from article PMC5387716, “Discovery of monocarbonyl curcumin-BTP hybrids as STAT3 inhibitors for drug-sensitive and drug-resistant breast cancer therapy” (Scientific Reports, 2017).

The subject of data set [1] is MCF-7/DOX cells. Description: ROS detection by DCFH-DA flow cytometry, MCF-7/DOX. The note with it: different concentrations (1, 2, 4 μM), 24 h. Type of data set: cell-based, human. On the procedure: MCF-7 or MCF-7/DOX cells were seeded at a density of 3 × 10^5 cells per well of a 6-well plate and treated with various concentrations of 6b (0, 1, 2, 4 μM) or 4 μM curcumin for 24 h. DCFH-DA was dissolved in serum-free medium and diluted to a final concentration of 10 μM. After treatment with 6b, the growth media was replaced with serum-free medium containing the probe. After incubation for 20 min at 37 °C, cells were washed with serum-free medium twice, digested by trypsin and resuspended in pre-warmed PBS buffer. The samples were then subjected to a flow cytometry assay using a BD FACSCalibur flow cytometer (Becton & Dickinson Company, Franklin Lakes, NJ).
In general terms: In flow cytometry, cells or beads pass a laser one at a time.

For the next data set, the system named is Cyclin D1. Description: Western blot of Cyclin D1. The conditions noted are these: MCF-7 and MCF-7/DOX cells, 24 h. Type of data set: cell-based, human. The procedure: (§1) MCF-7 or MCF-7/DOX cells were incubated with various concentrations of 6b for 24 h. After trypsinization, cells were treated with 1× RIPA lysis buffer (50 mM Tris–HCl, pH 7.4, 150 mM NaCl, 0.25% deoxycholic acid, 1% NP-40, 1 mM EDTA and protease inhibitors) (Amresco, Solon, USA) to extract the total proteins. An aliquot of proteins from the total cell lysates (30 to 60 μg/lane) was separated by sodium dodecyl sulfate (10%) polyacrylamide gel electrophoresis (SDS–PAGE, Bio-Rad Laboratories, Hercules, CA), wet-transferred to NC membrane (Bio-Rad Laboratories, Hercules, CA) and blotted with primary antibodies specific for STAT3, p-STAT3, p-Jak2, Jak2, p-Src, Src, Erk, P-Erk, PARP, cleaved PARP, Bcl-2, Bax, Cyclin D1, P-gp and GAPDH. Bound immuno-complexes were detected using ChemiDOC™ XRS + system (Bio-Rad Laboratories, Hercules, CA).
On the technique in general: A western blot detects proteins with antibodies after separation by electrophoresis.

A further data set relates to MCF-10A cells. Put plainly: MTT anti-proliferative assay, MCF-10A. Type of data set: cell-based, human. The conditions noted are these: 48 h, normal breast epithelial cells, Table 2 prints no unit, μM. The procedure:
(§2) All cell lines were purchased from Cell Bank of Shanghai Institute of Biochemistry and Cell Biology, Chinese Academy of Sciences (Shanghai, China). Human breast carcinoma cells (MCF-7 and MCF-7/DOX), breast epithelial cells (MCF-10A) and normal human liver cells (LO2) were maintained in RPMI-1640 medium. All cells were supplemented with 12% fetal bovine serum containing 50 μg/ml penicillin and 50 μg/ml streptomycin. Cells were grown to 80% confluency in a tissue culture flask at 37 °C in a humidified atmosphere containing 5% CO2, and then were trypsinized with 1 × Trypsin-Versene and split. The MCF-7/DOX cell line we used was established from its parental cell line MCF-7 cell by gradually increasing the concentration of DOX to which the cells were exposed in a stepwise manner over a period of 8 months. […] The cells were incubated in drug-free medium for at least 1 week before use.
(§3) Cells (MCF-7, MCF-7/DOX, MCF-10A, LO2) were seeded in 96-well plates at a density of 3,000–6,000 cells per well. The cells were incubated overnight (16 h) in a humidified 5% CO2 incubator at 37 °C. After media removal, different concentrations of test compounds were added in triplicate to the plates in 200 μL of fresh media and were incubated with the cells at 37 °C for 48 h. […] Cell viability was evaluated using 3-(4, 5-dimethylthiazolyl)-2,5-diphenyltetrazoliumbromide (MTT). The absorbance was read by an ELISA reader (SpectraMax Plus384, Molecular Devices, Sunnyvale, CA) at a test wavelength of 570 nm and a reference wavelength of 630 nm. Cell viability was calculated using the following formula: […]
For orientation: Tetrazolium dyes change colour on reduction, which living cells bring about.

Data set [2] deals with MCF-7/DOX cells. Description: MTT anti-proliferative assay, MCF-7/DOX. Type of data set: cell-based, human. The conditions noted are these: Homo sapiens, MCF7-DOX; MTT, 48 h; read-out: MCF-7/DOX IC50 ± SD. The procedure:
as §2, §3

In the next data set the test system is LO2 cells. Description: MTT anti-proliferative assay, LO2. The format is cell-based. The conditions noted are these: normal human liver cells, Table 2 prints no unit, μM. The procedure:
as §2, §3

Data set [3] deals with PARP, Caspase 9 and Caspase 3. Description: Western blot of cleaved PARP, Caspase 9 and Caspase 3. Type of data set: cell-based, human.
Data set [4] concerns implanted human breast tumors (MCF-7). Description: MCF-7 xenograft in BALB/c nude mice. The format is in vivo. The note with it: 10 mg/kg ip daily for 21 days. The procedure:
The working solution was prepared in a Cremophor and DMSO mixture (10% Cremophor, 10% DMSO and 80% 1 × PBS) to give a 1 mg/ml solution. Athymic BALB/c nude mice (15–18 g) were injected with human breast tumor MCF-7 cells (3 × 10^6 cells in a volume of 0.2 ml) into the subcutaneous tissue of the right auxiliary region of the mice. Three days after the tumor cell inoculation, the mice were randomly sorted into three groups with six mice per group. The tumor-bearing mice were either given a daily 10 mg/kg ip injection of compound 6b or the vehicle. The treatment was initiated when the tumor burden of the mice reached approximately 50 mm^3. The tumor size was measured by caliper three times a week to document tumor growth and calculated by the formula: length × width × width/2, and the body weight was measured and recorded. Therapeutic efficacy was evaluated based on body weight loss, tumor growth inhibition [determined by using calipers and calculated by the formula: tumor inhibit rate (%) = (tumor volCon − tumor volTre)/tumor volCon] × 100. The body weight inhibitory ratio, BI (%) was calculated as BI (%) = (1 −MT/MC) × 100, where MT and MC were the average body weights of the treated and control groups, respectively. On the 22nd day, all mice were killed, and the tumors were segregated, weighed, and stored in −80 °C for later use. The levels of p-STAT3 in tumor tissues prepared from control or mice treated with 6b were analyzed by western blot assay. Apoptosis was evaluated via the TUNEL assay, and the Ki-67 assay was used to assess cancer cell proliferation.

The next data set relates to MCF-7 cells. Put plainly: Colony survival assay, MCF-7. The format is cell-based, human. The conditions noted are these: 24 h treatment, 14 d culture. On the procedure:
MCF-7 or MCF-7/DOX cells were cultured a 6-well plate at a density of 800–1,000 cells/well with regular growth medium. Cells were treated for 24 h with the vehicle and 6b at 0.15–1 μM on the following day. Cells were allowed to grow for 10–14 d until colonies were visible. Crystal violet solution (Sigma, St. Louis, MO, USA) was used to stain the colonies for 4 hours and colonies were imaged.

A further data set deals with P-gp. Put plainly: Western blot of P-gp. The format is cell-based, human. The conditions noted are these: MCF-7/DOX cells, 24 h. On the procedure: as §1

In turn, `COc1ccc(/C=C/C(=O)N2CCN(C(=O)C3=Cc4cc(Br)ccc4S3(=O)=O)CC2)cc1` [Compound 6b, (E)-1-(4-(5-bromo-1,1-dioxidobenzo[b]thiophene-2-carbonyl)piperazin-1-yl)-3-(4-methoxyphenyl)prop-2-en-1-one] returned a melting point of 250 to 251 °C. The “increase of ROS levels” value in the data set with MCF-7/DOX cells [1] is reported as 2–8 fold. Also, the “expression of Cyclin D1 (protein)” value in the data set on Cyclin D1 is recorded as “inhibited”. The IC50 with MCF-10A cells was determined as 7.72 ± 0.56 µM. In the data set with MCF-10A cells (Homo sapiens, MCF-10A), this molecule had an IC50 of 7.7 µM. Moreover, the IC50 in the data set with MCF-7/DOX cells [2] came to 0.4 ± 0.01 µM. In the data set on LO2 cells (48 h), this molecule yielded an IC50 of 8.31 ± 0.41 µM. In the data set on LO2 cells (Homo sapiens, L02, 48 h), this molecule came in with an IC50 of 8.3 µM. Besides, the “cleavage of PARP, Caspase 9 and Caspase 3” value in data set [3] (MCF-7 and MCF-7/DOX cells) is “induced the cleavage”. In [3] (MCF-10A cells, concentrations up to 4 μM), the “cleaved PARP” value is “little”. For the same molecule, in [4], the “Ki-67 immunohistochemical staining in tumor tissues” value is given as “suppressed tumor cell proliferation”, the “TUNEL assay of tumor cells” value is reported as “induced tumor cell apoptosis”, the “changes in the body weights of the mice” value was “no significant changes” and the “reduction of the weight of the tumor tissues compared with the control” value stood at 68.2%. Moreover, in data set [4] (vs control tumors), the “p-STAT3 in lysates from the tumor tissues (immunoblotting)” value is reported as “suppression of p-STAT3”. In [4] (vs vehicle), the “volumes of the implanted human breast tumors” value was “significantly reduced”. In addition, the “clonogenic ability / colony formation” value in the data set with MCF-7 cells (MCF-7, 0.25 μM) is on record as “significant reduction in clonogenic ability”. Further, in the data set on MCF-7 cells (MCF-7, 0.5 μM), the “clonogenic ability / colony formation” value is “almost a cessation of colony formation”. Also, the P-gp expression result with P-gp is listed as “decreased P-gp expression in MCF-7/DOX cells in a dose-dependent manner”.

In general, melting point refers to the temperature, or range, at which the solid turns liquid.
